Source: article PMC7353089, “The Hepatotoxicity of Alantolactone and Germacrone: Their Influence on Cholesterol and Lipid Metabolism in Differentiated HepaRG Cells” (Nutrients, 2020)

How the values were obtained:
Type in all cases: cell-based, human
Conditions in all cases: multiple exposure: four applications every 24 h, analyzed 12 h after the last; 30 μM ATL, 100 μM GER, 20 μM LOV
[1] = system: SREBP-2 (F); experiment: Western blot protein level in dHepaRG cells
Method: All the treatments were performed in triplicates. Protein concentration was measured using the bicinchoninic acid (BCA) protein assay (Sigma Aldrich, Prague, Czech Republic) according to the manufacturer’s instructions. The proteins were loaded onto a 10% sodium dodecyl sulfate (SDS; w/v)–polyacrylamide gel (with 4% stacking gel) and separated by SDS-PAGE electrophoresis. The proteins were transferred onto a nitrocellulose membrane using wet blot (100 V, 90 min). The membrane blocking was performed in a 5% non-fat dry milk/TRIS-buffered saline-Tween-20 (TBS-T) solution at room temperature for 2 h. Incubation with primary antibodies was accomplished overnight at 10 °C. β-actin was used as housekeeping protein (the list of primary antibodies in Table S2). Afterwards, the membrane was washed with 0.05% TBS-T solution for 6 × 5 min, incubated with respective secondary antibodies conjugated with horseradish peroxidase (bovine anti-rabbit (sc2370, Santa Cruz Biotechnology, Santa Cruz, CA, USA) at room temperature for 1.5 h, and rinsed with TBS-T solution for 6 × 5 min. Visualization of protein bands was carried out using a chemiluminescence kit (GE Healthcare, Buckinghamshire, UK).

[2] = system: HMGCS mRNA; experiment: RT-qPCR mRNA expression in dHepaRG cells
Method: Three concentrations were selected for each compound (non-toxic, non-toxic/slightly toxic and toxic). The cholesterol level of the dHepaRG cells was measured after a multiple exposure of the highest non-toxic concentrations of tested compounds. […] The expression changes of genes and proteins related to cholesterol metabolism were measured in both single and multiple exposure experiments.
All treatments were performed in triplicates and every experiment was performed three times. The cells were washed twice with ice cold phosphate-buffered saline (PBS), scrapped and stored at −80 °C until use. Total RNA from cells was isolated using TriReagent according to the manufacturer’s instructions (Biotech, Prague, Czech Republic). The purified RNA was dissolved in 40 µL of diethyl pyrocarbonate (DEPC)-treated water (0.01% DEPC in HPLC water, autoclaved) and stored at −80 °C. The measurement of absorbance at 260 and 280 nm using the NanoDrop ND-1000 UV–VIS Spectrophotometer (Thermo Fisher Scientific, Pardubice, Czech Republic) was used to determine RNA yields and purity. Subsequently, the RNA (4 µg) was treated with 2 U of DNase I (New England Biolabs, Ipswich, MA, USA) in a final volume of 30 µL for 25 min at 37 °C, 1.5 µL of 0.1 M ethylenediaminetetraacetic acid was added and the DNAse was inactivated by heat (5 min at 75 °C). The solution was diluted to a concentration of 0.1 µg/µL. The DNAse treated RNA was stored at −80 °C until further analyses. The first strand cDNA was synthesized from 800 ng of total RNA and 1 µL of 50 µM random hexamers (Generi Biotech, Hradec Kralove, Czech Republic) using ProtoScript II reverse transcriptase (New England Biolabs, Ipswich, MA, USA). After the initial heat denaturation of total RNA (65 °C for 5 min), 4 µL of 5× ProtoScript II RT Reaction Buffer, 2 µL of 10× dithiothreitol (DTT), 2 µL of deoxynucleotide (dNTP) Mix 5 mM, 3.5 µL of H2O, and 0.5 µL of ProtoScript II 200 U/µL were added and mixed by pipetting. The reactions (20 µL) were incubated for 10 min at 25 °C, for 50 min at 42 °C, and for 5 min at 80 °C. The obtained cDNAs were diluted 1:6 by DEPC water. The qPCR analyses were carried out using QuantStudio 6 Flex (Applied Biosystems, Foster City, CA, USA) with SYBR green I (Xceed qPCR SG Mix, Institute of Applied Biotechnologies, Prague, Czech Republic) detection according to the manufacturer’s protocol. […] Fluorescence data were recorded at the end of each amplification step. Relative expression levels of the target genes were calculated as fold changes in triplicates for each group using the 2^−ΔΔCt method [28] by normalization to the geometric mean of the Ct values of Sdha and Ywhaz, which were used as reference genes.

[3] = system: HMGCR mRNA; experiment: RT-qPCR mRNA expression in dHepaRG cells
Method: The mRNA and protein expression changes were measured after a single administration of ALA and GER. Three concentrations were selected for each compound (non-toxic, non-toxic/slightly toxic and toxic). The cholesterol level of the dHepaRG cells was measured after a multiple exposure of the highest non-toxic concentrations of tested compounds. ATL (30 µM) and GER (100 µM) were administered four times every 24 h. The expression changes of genes and proteins related to cholesterol metabolism were measured in both single and multiple exposure experiments.
All treatments were performed in triplicates and every experiment was performed three times. The cells were washed twice with ice cold phosphate-buffered saline (PBS), scrapped and stored at −80 °C until use. Total RNA from cells was isolated using TriReagent according to the manufacturer’s instructions (Biotech, Prague, Czech Republic). The purified RNA was dissolved in 40 µL of diethyl pyrocarbonate (DEPC)-treated water (0.01% DEPC in HPLC water, autoclaved) and stored at −80 °C. The measurement of absorbance at 260 and 280 nm using the NanoDrop ND-1000 UV–VIS Spectrophotometer (Thermo Fisher Scientific, Pardubice, Czech Republic) was used to determine RNA yields and purity. Subsequently, the RNA (4 µg) was treated with 2 U of DNase I (New England Biolabs, Ipswich, MA, USA) in a final volume of 30 µL for 25 min at 37 °C, 1.5 µL of 0.1 M ethylenediaminetetraacetic acid was added and the DNAse was inactivated by heat (5 min at 75 °C). The solution was diluted to a concentration of 0.1 µg/µL. The DNAse treated RNA was stored at −80 °C until further analyses. […] Fluorescence data were recorded at the end of each amplification step. Relative expression levels of the target genes were calculated as fold changes in triplicates for each group using the 2^−ΔΔCt method by normalization to the geometric mean of the Ct values of Sdha and Ywhaz, which were used as reference genes.

## CC[C@H](C)C(=O)O[C@H]1C[C@@H](C)C=C2C=C[C@H](C)[C@H](CC[C@@H]3C[C@@H](O)CC(=O)O3)[C@H]21 [LOV, lovastatin, reference compound]
[1]
  SREBP-2 (F) protein level: decreased
[2]
  HMGCS mRNA level: decreased significantly
[3]
  HMGCR mRNA level: decreased significantly
